Structures are written as SMILES.

Test [1] concerns the target wild type MLL1 four-member complex (MLL1-4C) (Homo sapiens, UniProt P61964). The test is described as follows: MLL1 LC-MS assay (SAH production). It counts as biochemical. The conditions noted are these: read-out: (b) MLL LCMS Peptide Val.v.1 Qualified AC50. In outline: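 SAH formation, measured by LC-MS/MS after a TFA quench containing d4-SAH, was normalised to no-compound and no-enzyme controls and fitted to a dose-response curve for IC50. Reactions ran 120 min at rt (pH 8.0 Tris buffer) with final 30 nM MLL1 four-member complex, 2.5 μM SAM and 10 μM biotinylated H3[1-21] peptide, after a 20-min enzyme/SAM-compound preincubation.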

The next test concerns MV4-11 cells. Description: MV4-11 6-day cell growth CTG (CellTiter-Glo) assay. It counts as cell-based. The conditions noted are these: Homo sapiens, MV4-11, 144 h, 6 days, read-out: (c) MLL/WDR5 cell proliferation assay//MLL/WDR5 proliferation MV4:11 Qualified AC50. In outline: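 IC50 comes from a dose-response fit of % inhibition relative to DMSO controls, with viable cells measured by CellTiter-Glo luminescence. Compounds were tested over 12 points (1:3, starting at 50 μM final) on MV4-11 cells plated at 300/well and grown 6 days.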
On the technique in general: In ATP-based viability assays light output follows the ATP content of the culture.

The target in a further test is WDR5 (Homo sapiens, UniProt P61964). Description: WDR5 HTRF binding assay. The conditions noted are these: read-out: (a) WDR5 HTRF Pep Val v.1[Inhibitor/IC50]Qualified AC50. In outline:
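In this HTRF displacement format, biotinylated MLL1 WIN peptide (3762-3773, 20 nM) binds WDR5 (6 nM) in 25 mM Hepes pH 7.5 with 100 mM NaCl, 2 mM DTT and 0.1% BSA for 20 min at rt. Detection used streptavidin-APC/anti-His-Eu for 1 hr. IC50 came from dose-response fits of normalized signal; 15 nM biotin-PEG-His peptide served as counter assay.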
On the technique in general: In TR-FRET formats the signal depends on donor and acceptor labels being close together.

With `CCOc1cc([C@H](C)N2CCc3c(cc(CCN(C)CC)cc3-c3cc(CO)cnc3Cl)C2=O)ncc1F` [Example 120, (S)-5-(2-chloro-5-(hydroxymethyl)pyridin-3-yl)-2-(1-(4-ethoxy-5-fluoropyridin-2-yl)ethyl)-7-(2-(ethyl(methyl)amino)ethyl)-3,4-dihydroisoquinolin-1(2H)-one], the AC50 (in test [1]; with MV4-11 cells) was 10 to 1000 nM each time. For the same compound, the IC50 at WDR5 is less than 10 nM.
For `CCOc1cc([C@H](C)N2CCc3c(cc(CCN(C)CC)cc3-c3cc(C(C)(C)O)ncc3C)C2=O)ncc1C#N` [Example 184, (S)-4-ethoxy-6-(1-(7-(2-(ethyl(methyl)amino)ethyl)-5-(2-(2-hydroxypropan-2-yl)-5-methylpyridin-4-yl)-1-oxo-3,4-dihydroisoquinolin-2(1H)-yl)ethyl)nicotinonitrile], the AC50 (in test [1]; in the test with MV4-11 cells) was 10 to 1000 nM throughout. Besides, the IC50 at WDR5 was less than 10 nM.
Regarding `CCOc1cc([C@H](C)N2CCc3ccc(Cn4ccnc4NC)cc3C2=O)cnc1C#N` [Example 97, (S)-3-ethoxy-5-(1-(7-((2-(methylamino)-1H-imidazol-1-yl)methyl)-1-oxo-3,4-dihydroisoquinolin-2(1H)-yl)ethyl)picolinonitrile], the AC50 (in test [1]; in the test on MV4-11 cells) was 10 to 1000 nM in each case. For the same compound, at WDR5, the IC50 was in the range of 10 to 1000 nM.
With `CCOc1cc(C(C)N2CCc3c(cc(CCN(C)CC)cc3-c3cc(C(C)O)cnc3Cl)C2=O)ncc1C#N` (stereo not drawn) [Example 153, 6-(1-(5-(2-chloro-5-(1-hydroxyethyl)pyridin-3-yl)-7-(2-(ethyl(methyl)amino)ethyl)-1-oxo-3,4-dihydroisoquinolin-2(1H)-yl)ethyl)-4-ethoxynicotinonitrile], the AC50 (in test [1]; in the test with MV4-11 cells) was 10 to 1000 nM throughout. In addition, the IC50 at WDR5 was 10 to 1000 nM.
In the case of `CNc1nccn1Cc1cc2c(c(C3CC3)c1)CCN(Cc1cnc(F)c(OC)c1)C2=O` [Example 79, 5-cyclopropyl-2-((6-fluoro-5-methoxypyridin-3-yl)methyl)-7-((2-(methylamino)-1H-imidazol-1-yl)methyl)-3,4-dihydroisoquinolin-1(2H)-one], the AC50 (in test [1]; in the test on MV4-11 cells) was 10 to 1000 nM in each case. For the same compound, the IC50 at WDR5 lay in the range of 10 to 1000 nM.
With `CCOc1cc([C@H](C)N2CCc3c(cc(CCN(C)CC)cc3-c3cn(C(F)F)c(=O)cc3Cl)C2=O)ncc1C#N` [Example 174, (S)-6-(1-(5-(4-chloro-1-(difluoromethyl)-6-oxo-1,6-dihydropyridin-3-yl)-7-(2-(ethyl(methyl)amino)ethyl)-1-oxo-3,4-dihydroisoquinolin-2(1H)-yl)ethyl)-4 ethoxynicotinonitrile], the AC50 (in test [1]; with MV4-11 cells) was 10 to 1000 nM in each case. Moreover, the IC50 on WDR5 is less than 10 nM.
As for `CNc1nccn1Cc1cc(CN2CC(F)C2)c2c(c1)C(=O)N(Cc1cnc(F)c(OC)c1)CC2` [Example 33, 2-((6-fluoro-5-methoxypyridin-3-yl)methyl)-5-((3-fluoroazetidin-1-yl)methyl)-7-((2-(methylamino)-1H-imidazol-1-yl)methyl)-3,4-dihydroisoquinolin-1(2H)-one], the AC50 (in test [1]; in the test on MV4-11 cells) was 10 to 1000 nM each time. Also, the IC50 on WDR5 is 10 to 1000 nM.
`CCOc1cc([C@H](C)N2CCc3c(cc(Cn4cncc4C)cc3-c3cn(C)nc3C)C2=O)ncc1C#N` [Example 289]: the AC50 in test [1] is 10 to 1000 nM; with MV4-11 cells, 1000 to 25000 nM. Further, the IC50 on WDR5 is less than 10 nM.
The like results for `CCOc1cc([C@H](C)N2CCc3ccc(Cn4ccnc4NC)cc3C2=O)cnc1Cl` [Example 95, (S)-2-(1-(6-chloro-5-ethoxypyridin-3-yl)ethyl)-7-((2-(methylamino)-1H-imidazol-1-yl)methyl)-3,4-dihydroisoquinolin-1(2H)-one] were, in that order, 10 to 1000 nM, 10 to 1000 nM and 10 to 1000 nM.
Regarding `CCOc1cc([C@H](C)N2CCc3c(cc(CCN(C)CCOC)cc3-c3cc(C)ncc3C)C2=O)ncc1C#N` [Example 232], the AC50 (in test [1]; in the test with MV4-11 cells) was 10 to 1000 nM in each case. Further, the IC50 at WDR5 was less than 10 nM.
As for `CCOc1cc(C(C)N2CCc3c(cc(CCN(C)CCF)cc3-c3cn(C)nc3C)C2=O)ncc1C#N` (stereo not drawn) [Example 241], the AC50 (in test [1]; with MV4-11 cells) was 10 to 1000 nM each time. In addition, the IC50 at WDR5 is 10 to 1000 nM.
Turning to `CCOc1cc([C@H](C)N2CCc3c(cc(CCN(C)CC)cc3-c3cc(N)cnc3C(F)(F)F)C2=O)ncc1C#N` [Example 138, (S)-6-(1-(5-(5-amino-2-(trifluoromethyl)pyridin-3-yl)-7-(2-(ethyl(methyl)amino)ethyl)-1-oxo-3,4-dihydroisoquinolin-2(1H)-yl)ethyl)-4-ethoxynicotinonitrile], the AC50 (in test [1]; in the test with MV4-11 cells) was 10 to 1000 nM in each case. Moreover, the IC50 at WDR5 is less than 10 nM.
With `COc1cc(CN2CCc3c(cc(CCN(C)C)cc3-c3cn(C)nc3C(F)(F)F)C2=O)ccc1F` [Example 255], the AC50 fell in the range of 10 to 1000 nM in test [1] and 1000 to 25000 nM with MV4-11 cells. The IC50 on WDR5 lay within 10 to 1000 nM.
For `CNc1nccn1Cc1cc(CN(C)C2COC2)c2c(c1)C(=O)N([C@@H](C)c1cc(OC)c(F)cn1)CC2` [Example 13], the AC50 (in test [1]; in the test on MV4-11 cells) was 10 to 1000 nM throughout. In addition, the IC50 at WDR5 fell in the range of 10 to 1000 nM.
As to `CNc1nccn1Cc1cc(CN2CC(F)(F)C2)c2c(c1)C(=O)N([C@@H](C)c1cc(OC)c(F)cn1)CC2` [Example 48, (S)-5-((3,3-difluoroazetidin-1-yl)methyl)-2-(1-(5-fluoro-4-methoxypyridin-2-yl)ethyl)-7-((2-(methylamino)-1H-imidazol-1-yl)methyl)-3,4-dihydroisoquinolin-1(2H)-one], the AC50 (in test [1]; with MV4-11 cells) was 10 to 1000 nM in each case. In addition, the IC50 at WDR5 is 10 to 1000 nM.
Turning to `CCOc1cc(CN2CCc3c(cc(CCN(C)CC)cc3-c3cc(C)cnc3C(F)F)C2=O)ncc1C#N` [Example 144, 6-((5-(2-(difluoromethyl)-5-methylpyridin-3-yl)-7-(2-(ethyl(methyl)amino)ethyl)-1-oxo-3,4-dihydroisoquinolin-2(1H)-yl)methyl)-4-ethoxynicotinonitrile], the AC50 (in test [1]; with MV4-11 cells) was 10 to 1000 nM each time. Moreover, the IC50 on WDR5 lay in the range of 10 to 1000 nM.
Take `CCOc1cc(C(C)N2CCc3c(cc(CCN(C)CC)cc3N3CCCC3)C2=O)ncc1C#N` (stereo not drawn) [Example 207, 4-ethoxy-6-(1-(7-(2-(ethyl(methyl)amino)ethyl)-1-oxo-5-(pyrrolidin-1-yl)-3,4-dihydroisoquinolin-2(1H)-yl)ethyl)nicotinonitrile]: the AC50 in test [1] was 10 to 1000 nM; with MV4-11 cells, 1000 to 25000 nM. Also, on WDR5, the IC50 lay in the range of 10 to 1000 nM.
In the case of `CCOc1cc([C@H](C)N2CCc3c(cc(CCN(C)CC)cc3-c3ccnc(F)c3C)C2=O)ncc1C#N` [Example 117, (S)-4-ethoxy-6-(1-(7-(2-(ethyl(methyl)amino)ethyl)-5-(2-fluoro-3-methylpyridin-4-yl)-1-oxo-3,4-dihydroisoquinolin-2(1H)-yl)ethyl)nicotinonitrile], the AC50 (in test [1]; in the test with MV4-11 cells) was 10 to 1000 nM throughout. Besides, the IC50 at WDR5 is less than 10 nM.
Regarding `CCOc1cc([C@H](C)N2CCc3c(cc(Cn4ccnc4C)cc3-c3cn(C)c(=O)cc3C(F)(F)F)C2=O)ncc1C#N` [Example 288], the AC50 in test [1] was 10 to 1000 nM; in the test on MV4-11 cells it was less than 10 nM. In addition, the IC50 at WDR5 is less than 10 nM.
In the case of `CCOc1cc([C@H](C)N2CCc3c(CN4CCOCC4)cc(Cn4ccnc4NC)cc3C2=O)ncc1F` [Example 27, (S)-2-(1-(4-ethoxy-5-fluoropyridin-2-yl)ethyl)-7-((2-(methylamino)-1H-imidazol-1-yl)methyl)-5-(morpholinomethyl)-3,4-dihydroisoquinolin-1(2H)-one], the AC50 (in test [1]; in the test on MV4-11 cells) was 10 to 1000 nM each time. For the same compound, the IC50 on WDR5 lay in the range of 10 to 1000 nM.
For the compound `CCOc1cc([C@H](C)N2CCc3c(cc(CCN(C)CC)cc3-c3cc(C(C)=O)cnc3C)C2=O)ncc1C#N` [Example 185, (S)-6-(1-(5-(5-acetyl-2-methylpyridin-3-yl)-7-(2-(ethyl(methyl)amino)ethyl)-1-oxo-3,4-dihydroisoquinolin-2(1H)-yl)ethyl)-4-ethoxynicotinonitrile], the AC50 (in test [1]; in the test on MV4-11 cells) was 10 to 1000 nM in each case. For the same compound, the IC50 at WDR5 was less than 10 nM.
For the compound `CCOc1cc([C@H](C)N2CCc3c(cc(CCN(C)CCF)cc3-c3cc(C)ncc3C)C2=O)ncc1C#N` [Example 254], the AC50 (in test [1]; in the test with MV4-11 cells) was 10 to 1000 nM throughout. The IC50 at WDR5 fell in the range of 10 to 1000 nM.
With `CCOc1cc([C@H](C)N2CCc3c(cc(CCN(C)CC)cc3-c3cc(CC#N)cnc3C)C2=O)ncc1C#N` [Example 192, (S)-6-(1-(5-(5-(cyanomethyl)-2-methylpyridin-3-yl)-7-(2-(ethyl(methyl)amino)ethyl)-1-oxo-3,4-dihydroisoquinolin-2(1H)-yl)ethyl)-4-ethoxynicotinonitrile], the AC50 (in test [1]; in the test on MV4-11 cells) was 10 to 1000 nM in each case. Besides, at WDR5, the IC50 was less than 10 nM.

(Values after patent publication US20220289732A1, “HETEROCYCLIC WDR5 INHIBITORS AS ANTI-CANCER COMPOUNDS” (NOVARTIS AG, priority 2019, published 2022).)
